According to patent US8143003B2, “Method for detecting oral squamous-cell carcinoma” (Fujifilm Corporation, priority 2008, dated 2012):
“Also recorded” adds a separate entry of the source.

Key:
Type in all cases: cell-based
[1] = test system: MTNR1A gene expression in oral squamous-cell carcinoma cell lines (TOSCa-50, ZA, and NA); experiment: Recovery of MTNR1A gene expression by demethylation, examined by RT-PCR
Method: (C) MTNR1A expression was recovered by a demethylation treatment performed on cells in which the gene was not expressed. The cells were treated using a 1 μM or 5 μM demethylating reagent 5-aza-dCyd for 5 days and/or using a deacetylation inhibitory agent TSA (100 ng/ml) for 12 hours. GAPDH was used as an internal control.
Specifically, single-stranded cDNA was synthesized from the RNA extracted from each cultured cell line using the SuperScript First-Strand Synthesis System (Invitrogen). Moreover, a glyceraldehyde-3-phosphate dehydrogenase (GAPDH) gene was used as a control.
In order to examine if the suppressed expression of the MTNR1A gene was due to DNA methylation, oral squamous-cell carcinoma cell lines (TOSCa-50, ZA, and NA) that had not expressed the MTNR1A gene were treated with a 1 μM or 5 μM demethylating reagent 5-aza-dCyd for 5 days and/or with a deacetylation inhibitory agent TSA (100 ng/ml) for 12 hours. RNAs were extracted from these cells, and MTNR1A gene expression was then examined by RT-PCR (FIG. 2c).

[2] = test system: CYP4V2 gene expression in cell lines with decreased expression; experiment: CYP4V2 gene expression after treatment with 5-aza-dCyd and/or TSA
Method: (§1) (A) The expression status of a DKFZP564J gene and a CYP4V2 gene in cell lines in which the expression levels of the aforementioned genes had been decreased, which were treated with 5-aza-dCyd and/or TSA.

[3] = test system: DKFZP564J gene expression in cell lines with decreased expression; experiment: DKFZP564J gene expression after treatment with 5-aza-dCyd and/or TSA
Method: as §1

CYP4V2 gene expression [2]	SMILES	MTNR1A gene expression (RT-PCR) ([1]; 1 μM or 5 μM 5-aza-dCyd for 5 days, NA cells not expressing MTNR1A)	DKFZP564J gene expression [3]	MTNR1A gene expression (RT-PCR) ([1]; TSA 100 ng/ml for 12 hours, NA cells)
gene expression was not recovered	Nc1ncn([C@H]2C[C@H](O)[C@@H](CO)O2)c(=O)n1 [5-aza-dCyd, 5-azadeoxycytidine]	recovers its gene expression; also recorded: possible to recover the expression level of the MTNR1A gene	gene expression was not recovered	
	CC(/C=C/C(=O)NO)=C\[C@@H](C)C(=O)c1ccc(N(C)C)cc1 [TSA]			no differences in MTNR1A gene expression
